Assay results reported in patent publication US8546406B2, “Heterocyclic compounds as metap-2 inhibitors” (Merck Patent GmbH, priority 2009, dated 2013).

Molecular target: MetAP-2 (Homo sapiens, UniProt P50579)
Test: MetAP-2 activity measurement (coupled enzymatic reactions, substrate Met-Arg-Ser, photometric at 450 nm)
Format: biochemical
Conditions: Inhibition of MetAP-2; read-out: IC50 enzyme
Description: The MetAP-2 activity is determined by coupling enzymatic reactions. The tripeptide Met-Arg-Ser (MAS) is employed as substrate. The methionine liberated is firstly converted into Metox and H2O2 by L-aminooxidase (AAO). In the second step, the peroxidase (POD) with the aid of the H2O2 catalyses the oxidation of the leukodye dianisidine to dianisidineox, the increase of which is detected photometrically at 450 nm.
MetAP-2 activity can be recorded continuously as kinetics. The reaction scheme illustrates that one mol of dianisidineox is formed per mol of methionene. The MetAP-2 enzyme activity can therefore be calculated directly as Δ absorption per time unit. Qualification of the MetAP-2 activity (mol of Met/time unit) is possible with the aid of the dianisidineox extinction coefficient. The change in extinction per time unit is depicted graphically and a slope calculation is carried out in the visually linear region of the reaction.

MetAP-2, sequence (P50579 whole entry, species assumed): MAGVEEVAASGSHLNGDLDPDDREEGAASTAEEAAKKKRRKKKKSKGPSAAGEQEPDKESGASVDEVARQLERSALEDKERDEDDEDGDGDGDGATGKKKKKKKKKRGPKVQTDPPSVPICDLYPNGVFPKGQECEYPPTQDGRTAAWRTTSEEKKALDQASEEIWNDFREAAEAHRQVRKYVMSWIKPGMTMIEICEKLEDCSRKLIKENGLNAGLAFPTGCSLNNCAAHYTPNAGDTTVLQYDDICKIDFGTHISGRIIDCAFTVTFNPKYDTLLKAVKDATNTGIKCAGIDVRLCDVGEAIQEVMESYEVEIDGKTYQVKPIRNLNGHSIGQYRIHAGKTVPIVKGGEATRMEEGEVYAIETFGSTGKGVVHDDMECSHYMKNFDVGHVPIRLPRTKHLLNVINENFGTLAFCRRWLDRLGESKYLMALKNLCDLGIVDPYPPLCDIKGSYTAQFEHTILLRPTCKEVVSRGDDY

IC50 [nM] | Structure (SMILES)
> 10000 | c1ccc2c(OC[C@H]3CCCN3c3ccnc4nncn34)cccc2c1 [Compound A4, 5-[(R)-2-(naphthalen-1-yloxymethyl)pyrrolidin-1-yl]-[1,2,4]-triazolo[4,3-a]pyrimidine]
10 to 1000 | c1ccc2c(OC[C@H]3CCCN3c3ccnc4ncnn34)ccnc2c1 [Compound A8]
10 to 1000 | FC(F)(F)Oc1ccc2nccc(OC[C@H]3CCCN3c3ccnc4ncnn34)c2c1 [Compound A9]
10 to 1000 | FC(F)(F)c1ccc2nccc(OC[C@H]3CCCN3c3ccnc4ncnn34)c2c1 [Compound A10]
10 to 1000 | O=C(NCc1ccc(F)cc1)c1cc(OC[C@H]2CCCN2c2ccnc3ncnn23)c2ccccc2n1 [Compound A11]
10 to 1000 | O=C(NCCc1ccc(F)cc1)c1cc(OC[C@H]2CCCN2c2ccnc3ncnn23)c2ccccc2n1 [Compound A12]
10 to 1000 | CCNC(=O)c1cc(OC[C@H]2CCCN2c2ccnc3ncnn23)c2ccccc2n1 [Compound A13]
10 to 1000 | c1ccc2c(OC[C@H]3CCCN3c3ccnc4ncnn34)nccc2c1 [Compound A16]
10 to 1000 | c1cc(OC[C@H]2CCCN2c2ccnc3ncnn23)c2ccncc2c1 [Compound A17]
10 to 1000 | O=C(NCCCN1CCCC1=O)c1cc(OC[C@H]2CCCN2c2ccnc3ncnn23)c2ccccc2n1 [Compound A18]
10 to 1000 | CCOC(=O)c1n[nH]c(C)c1OC[C@H]1CCCN1c1ccnc2ncnn12 [Compound A19]
10 to 1000 | c1ccc2c(OC[C@H]3CCCN3c3ccnc4ncnn34)ccc(CNCCN3CCOCC3)c2c1 [Compound A20]
10 to 1000 | c1ccc2c(OC[C@H]3CCCN3c3ccnc4ncnn34)ccc(CNCCCN3CCOCC3)c2c1 [Compound A21]
10 to 1000 | O=C(NCc1ccccc1)c1cc(OC[C@H]2CCCN2c2ccnc3ncnn23)c2ccccc2n1 [Compound A22]
10 to 1000 | O=C(NCCc1c[nH]c2ccccc12)c1cc(OC[C@H]2CCCN2c2ccnc3ncnn23)c2ccccc2n1 [Compound A23]
10 to 1000 | NS(=O)(=O)c1ccc(CCNC(=O)c2cc(OC[C@H]3CCCN3c3ccnc4ncnn34)c3ccccc3n2)cc1 [Compound A24]
1000 to 10000 | CC(C)(C)OC(=O)N1CCc2cccc(OC[C@H]3CCCN3c3ccnc4ncnn34)c2C1 [Compound A25]
10 to 1000 | O=C(OC[C@H]1CCCN1c1ccnc2ncnn12)c1ccc(F)cc1 [Compound A26]
10 to 1000 | c1cc2c(c(OC[C@H]3CCCN3c3ccnc4ncnn34)c1)CNCC2 [Compound A27]
1000 to 10000 | O=C(NCCc1ccc(Cl)cc1)c1cc(OC[C@H]2CCCN2c2ccnc3ncnn23)c2ccccc2n1 [Compound A28]
10 to 1000 | CC(C)(C)OC(=O)N[C@H](CC(N)=O)C(=O)N1CCc2cccc(OC[C@H]3CCCN3c3ccnc4ncnn34)c2C1 [Compound A29]
10 to 1000 | CC(C)(C)OC(=O)NCC(=O)N1CCc2cccc(OC[C@H]3CCCN3c3ccnc4ncnn34)c2C1 [Compound A31]
10 to 1000 | CC(=O)N[C@@H](CC(N)=O)C(=O)N1CCc2cccc(OC[C@H]3CCCN3c3ccnc4ncnn34)c2C1 [Compound A32]

IC50 [nM] | Structure (SMILES)
10 to 1000 | CC(=O)N1CCc2cccc(OC[C@H]3CCCN3c3ccnc4ncnn34)c2C1 [Compound A33]
10 to 1000 | O=C(c1ccno1)N1CCc2cccc(OC[C@H]3CCCN3c3ccnc4ncnn34)c2C1 [Compound A34]
10 to 1000 | CC(C)(C)OC(=O)NCCCCN1CCc2cccc(OC[C@H]3CCCN3c3ccnc4ncnn34)c2C1 [Compound A35]
10 to 1000 | NC(=O)C[C@@H](N)C(=O)N1CCc2cccc(OC[C@H]3CCCN3c3ccnc4ncnn34)c2C1 [Compound A36]
10 to 1000 | NCC(=O)N1CCc2cccc(OC[C@H]3CCCN3c3ccnc4ncnn34)c2C1 [Compound A37]
10 to 1000 | N#CCCCCN1CCc2cccc(OC[C@H]3CCCN3c3ccnc4ncnn34)c2C1 [Compound A38]
10 to 1000 | CC(C)(C)OC(=O)N[C@H](CC#N)C(=O)N1CCc2cccc(OC[C@H]3CCCN3c3ccnc4ncnn34)c2C1 [Compound A39]
10 to 1000 | N#CCCCCOC(=O)N1CCc2cccc(OC[C@H]3CCCN3c3ccnc4ncnn34)c2C1 [Compound A40]
10 to 1000 | NCCCCN1CCc2cccc(OC[C@H]3CCCN3c3ccnc4ncnn34)c2C1 [Compound A41]
10 to 1000 | NCCCCOC(=O)N1CCc2cccc(OC[C@H]3CCCN3c3ccnc4ncnn34)c2C1 [Compound A42]
10 to 1000 | COc1cccc(C(=O)OC[C@H]2CCCN2c2ccnc3ncnn23)c1 [Compound A43]
10 to 1000 | O=C(OC[C@H]1CCCN1c1ccnc2ncnn12)c1cccc(Br)c1 [Compound A44]
10 to 1000 | O=C(OC[C@H]1CCCN1c1ccnc2ncnn12)c1cccc(I)c1 [Compound A45]
10 to 1000 | O=C(OC[C@H]1CCCN1c1ccnc2ncnn12)c1cc(Cl)nc2ccccc12 [Compound A46]
> 10000 | c1ccc2c(OC[C@H]3CCCN3c3ccnc4nsnc34)cccc2c1 [Compound A47]
1000 to 10000 | FC(F)(F)c1cccc(COC[C@H]2CCCN2c2ccnc3ncnn23)c1 [Compound A48]
1000 to 10000 | Ic1cccc(COC[C@H]2CCCN2c2ccnc3ncnn23)c1 [Compound A49]
10 to 1000 | CN(C)c1cccc(C(=O)OC[C@H]2CCCN2c2ccnc3ncnn23)c1 [Compound A50]
10 to 1000 | COc1cccc(COC[C@H]2CCCN2c2ccnc3ncnn23)c1 [Compound A51]
10 to 1000 | O=C(OC[C@H]1CCCN1c1ccnc2ncnn12)c1cccc(F)c1 [Compound A52]
10 to 1000 | NC(=O)CCCC(=O)N1CCc2cccc(OC[C@H]3CCCN3c3ccnc4ncnn34)c2C1 [Compound A53]
10 to 1000 | Fc1cccc(COC[C@H]2CCCN2c2ccnc3ncnn23)c1 [Compound A55]
1000 to 10000 | c1cncc(COC[C@H]2CCCN2c2ccnc3ncnn23)c1 [Compound A56]

IC50 [nM] | Structure (SMILES)
> 10000 | O=C(O)Cc1ccccc1OC[C@H]1CCCN1c1ccnc2ncnn12 [Compound A57]
> 10000 | c1cc(COC[C@H]2CCCN2c2ccnc3ncnn23)ccn1 [Compound A58]
10 to 1000 | COC(=O)c1ccc2[nH]c(COC[C@H]3CCCN3c3ccnc4ncnn34)cc2c1 [Compound A59]
> 10000 | O=C(OC[C@H]1CCCN1c1ccnc2ncnn12)c1cccc(C(F)(F)F)c1 [Compound A60]
10 to 1000 | O=C(OC[C@H]1CCCN1c1ccnc2ncnn12)c1ccc(Cl)nc1 [Compound A61]
10 to 1000 | O=C(OC[C@H]1CCCN1c1ccnc2ncnn12)c1cccnc1Oc1ccccc1 [Compound A62]
> 10000 | Clc1cc(COC[C@H]2CCCN2c2ccnc3ncnn23)cc(Cl)n1 [Compound A65]
10 to 1000 | Brc1cccc(COC[C@H]2CCCN2c2ccnc3ncnn23)c1 [Compound A66, 7-[(R)-2-(3-Bromobenzyloxymethyl)pyrrolidin-1-yl]-[1,2,4]triazolo[1,5-a]pyrimidine]
10 to 1000 | FC(F)(F)Oc1cccc(COC[C@H]2CCCN2c2ccnc3ncnn23)c1 [Compound A67, 7-[(R)-2-(3-Trifluoromethoxybenzyloxymethyl)-pyrrolidin-1-yl]-[1,2,4]triazolo[1,5-a]pyrimidine]
10 to 1000 | O=C(OC[C@H]1CCCN1c1ccnc2ncnn12)c1ccccc1I [Compound A68, (R)-1-[1,2,4]Triazolo[1,5-a]pyrimidin-7-yl-pyrrolidin-2-ylmethyl 2-iodobenzoate]
10 to 1000 | O=C(OC[C@H]1CCCN1c1ccnc2ncnn12)c1ccccn1 [Compound A69, (R)-1-[1,2,4]Triazolo[1,5-a]pyrimidin-7-yl-pyrrolidin-2-ylmethyl pyridine-2-carboxylate]
10 to 1000 | O=C(OC[C@H]1CCCN1c1ccnc2ncnn12)c1cccnc1 [Compound A70]
10 to 1000 | O=C(OC[C@H]1CCCN1c1ccnc2ncnn12)c1ccccc1 [Compound A71, (R)-1-[1,2,4]Triazolo[1,5-a]pyrimidin-7-yl-pyrrolidin-2-ylmethyl benzoate]
10 to 1000 | CCOc1cccc(C(=O)OC[C@H]2CCCN2c2ccnc3ncnn23)c1 [Compound A72, (R)-1-[1,2,4]Triazolo[1,5-a]pyrimidin-7-yl-pyrrolidin-2-ylmethyl 3-ethoxybenzoate]
10 to 1000 | O=C(OC[C@H]1CCCN1c1ccnc2ncnn12)c1cc(Cl)ccc1F [Compound A73, (R)-1-[1,2,4]Triazolo[1,5-a]pyrimidin-7-yl-pyrrolidin-2-ylmethyl 5-chloro-2-fluorobenzoate]
10 to 1000 | O=C(OC[C@H]1CCCN1c1ccnc2ncnn12)c1cccc(CCl)c1 [Compound A74, (R)-1-[1,2,4]Triazolo[1,5-a]pyrimidin-7-yl-pyrrolidin-2-ylmethyl 3-chloromethylbenzoate]
10 to 1000 | NCCCOC(=O)N1CCc2cccc(OC[C@H]3CCCN3c3ccnc4ncnn34)c2C1 [Compound A75]
10 to 1000 | NCCCN1CCc2cccc(OC[C@H]3CCCN3c3ccnc4ncnn34)c2C1 [Compound A76]
1000 to 10000 | O=C1c2ccccc2C(=O)N1C[C@H]1CCCN1c1ccnc2ncnn12 [Compound A78]
10 to 1000 | N#Cc1cccc(C(=O)OC[C@H]2CCCN2c2ccnc3ncnn23)c1 [Compound A79, (R)-1-[1,2,4]Triazolo[1,5-a]pyrimidin-7-yl-pyrrolidin-2-ylmethyl 3-cyanobenzoate]
1000 to 10000 | Nc1nc2nccc(N3CCC[C@@H]3COc3cccc4ccccc34)n2n1 [Compound A80]
10 to 1000 | COC(=O)c1ccc2[nH]c(CC3CCCN3c3ccnc4ncnn34)cc2c1 (stereo not drawn) [Compound A81]

Structure (SMILES) | IC50 [nM]
O=C(OC[C@H]1CCCN1c1ccnc2ncnn12)c1ccc(Oc2ccccc2)nc1 [Compound A64] | 10 to 1000
